Experimental findings from PMC10740432, “The GDP-Mannose Dehydrogenase of Pseudomonas aeruginosa: An Old and New Target to Fight against Antibiotics Resistance of Mucoid Strains” (Antibiotics, 2023) are described below.

The Ki is the dissociation constant of the complex between target and ligand, obtained from inhibition or displacement. A low value points to tighter binding. As usually defined, the Km is the substrate concentration at which the rate is half of its maximum.

For data set [1], the target named is T1, GDP-mannose dehydrogenase (GMD) (Pseudomonas aeruginosa, UniProt P11759).
T1 construct: gene algD; native full-length protein purified from mucoid P. aeruginosa; 48 kDa polypeptide; 59 kDa apparent on gel filtration, monomer/active dimer; no tag
T1 sequence (P11759 whole entry): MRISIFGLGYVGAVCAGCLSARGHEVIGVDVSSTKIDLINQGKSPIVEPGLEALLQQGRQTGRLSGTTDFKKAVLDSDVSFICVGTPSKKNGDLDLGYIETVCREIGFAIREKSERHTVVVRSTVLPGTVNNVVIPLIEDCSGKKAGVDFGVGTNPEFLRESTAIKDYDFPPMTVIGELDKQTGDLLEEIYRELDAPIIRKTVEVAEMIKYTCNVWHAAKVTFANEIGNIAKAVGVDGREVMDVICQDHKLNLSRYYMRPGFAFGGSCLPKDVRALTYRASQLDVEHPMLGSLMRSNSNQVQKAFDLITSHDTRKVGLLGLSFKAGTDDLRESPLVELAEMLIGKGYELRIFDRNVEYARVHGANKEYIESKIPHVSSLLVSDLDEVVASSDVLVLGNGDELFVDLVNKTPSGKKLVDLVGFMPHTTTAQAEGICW
Briefly: inhibition of NADH formation at […] nm. Format: biochemical. Conditions: read-out: Percentage of GMD Inhibition at the Final Concentration of.

For data set [2], the target named is T1, GDP-mannose dehydrogenase (GMD). Put plainly: NADH formation at […] nm, Dixon plot. Format: biochemical.
The subject of data set [3] is Nc1nc2c(ncn2[C@@H]2O[C@H](COP(=O)(O)OP(=O)(O)O[C@H]3O[C@H](CO)[C@@H](O)[C@H](O)[C@@H]3O)[C@@H](O)[C@H]2O)c(=O)[nH]1. Put plainly: purified protein. Conditions: strong-affinity site of two (negative cooperativity), strains NK 125502 and A22 alg^+, 1 mM NAD+, 10 mM MgSO4, 0.2 M glycyl-glycine pH 8.5, 37 °C.
The test system of data set [4] is NC(=O)c1ccc[n+]([C@@H]2O[C@H](COP(=O)(O)OP(=O)(O)OC[C@H]3O[C@@H](n4cnc5c(N)ncnc54)[C@H](O)[C@@H]3O)[C@@H](O)[C@H]2O)c1. Put plainly: purified protein. Conditions: co-substrate GDP-mannose, 10 mM MgSO4, 0.2 M glycyl-glycine pH 8.5, 37 °C, strain not stated, varied: cofactor.

Regarding `NC[C@H]1O[C@@H](n2cnc3c(=O)[nH]c(N)nc32)[C@H](O)[C@@H]1O` [5′AG, 5′-amino-5′-deoxy-guanosine], in data set [1], the inhibition at 500 µM stood at 64 ± 3%.

For the compound `Nc1nc2c(ncn2[C@@H]2O[C@H](CNCCCO)[C@@H](O)[C@H]2O)c(=O)[nH]1` [5′APG, 5′-(3-hydroxypropyl)-amino-5′-guanosine], in data set [1], the inhibition at 500 µM is 72 ± 2%.

`C#CC(OC(C)=O)[C@H]1O[C@H](OC(=O)NS(=O)(=O)OC[C@H]2O[C@@H](n3cnc4c(=O)[nH]c(NC(C)=O)nc43)[C@@H]3OC(C)(C)O[C@@H]32)[C@@H](OC(C)=O)[C@@H](OC(C)=O)[C@@H]1OC(C)=O` (stereo partly drawn) [AM5′ASG, alcynyl-6-tetra-O-acetyl-mannose-carbonyl-amino-sulfonyl-guanosine]: the inhibition at 500 µM in data set [1] worked out at 90 ± 3%.

For `Nc1nc2c(ncn2[C@@H]2O[C@H](CO)[C@@H](O)[C@H]2O)c(=O)[nH]1` [guanosine], in data set [2], the Ki is roughly 40 µM.

Regarding “GDP-mannose dehydrogenase (GMD) (Pseudomonas aeruginosa PAO1)”, the Km in data set [3] was 13 µM; in data set [4] it was 360 µM.
